# Patent US12551536B2, “Semaglutide in medical therapy” (Novo Nordisk A/S, priority 2017, dated 2026)
# Legend:
# [1] = 52-week clinical trial in obese subjects without diabetes mellitus: gastrointestinal adverse events; format: in vivo, human; details: Lira 3.0 mg once daily s.c., on-treatment
# Experimental: This trial was designed as a 52-week, randomised, double-blind, placebo-controlled, sixteen-armed, parallel group, multi-centre, multinational trial comparing once-daily subcutaneous administration of semaglutide in five different doses (ranging from 0.05 mg/day to 0.4 mg/day) with placebo in obese subjects without diabetes mellitus. […] The trial was double-blinded between active and placebo treatment. To ensure a sufficiently large sample of men, no more than 70% of the trial population was allowed to be women and the randomisation was stratified according to sex. Subjects were randomised in a balanced manner (6:1 active:placebo).
# The primary endpoint was relative change from baseline in body weight (%) at 52 weeks. Key secondary endpoints included proportion of subjects with weight loss of ≥5% or ≥10% of baseline body weight at 52 weeks as well as change in body weight from baseline to 52 weeks. Supportive secondary safety endpoints also included gastrointestinal (GI) adverse events (i.e. nausea, vomiting, diarrhoea and constipation). During each site visit the individual subject was asked via open questions if they had experienced any medical problems since the last visit. All medical problems either observed by the site staff or the subject was reported as an adverse event and evaluated for severity and causality by the investigator. For this trial the subjects had site visits every 2 weeks for the first 20 weeks of the trial and afterwards site visits was performed every 4 weeks.
# Subjects in all treatment arms including placebo received nutritional counselling and a calorie-reduced diet by a dietician or equivalent qualified delegate as well as physical activity counselling by a qualified person on a monthly basis beginning at the randomisation visit. The trial population consisted of a total of 957 subjects were randomised. A total of 777 subjects (81.2%) completed 52 weeks of treatment; 180 (18.8%) discontinued treatment prematurely with no obvious dose-dependent trend. Key inclusion criteria for this trial were: Male or female, age ≥18 years at the time of signing inform consent; body mass index (BMI)≥30.0 kg/m2 at the screening visit; and at least one unsuccessful weight loss attempt per investigator judgement. Key exclusion criteria for this trial were: A HbA1c≥6.5% at screening or diagnosed with type 1 or type 2 diabetes mellitus; Treatment with glucose lowering agent(s) within 90 days before screening; Screening calcitonin ≥50 ng/L (pg/mL); Personal or family history of medullary thyroid carcinoma or multiple endocrine neoplasia syndrome type 2; History of pancreatitis (acute or chronic); Obesity induced by endocrine disorders (e.g. Cushing Syndrome); Treatment with any medication within 90 days before screening that based on investigator's judgement may cause significant weight change; Previous surgical treatment for obesity (liposuction and/or abdominoplasty performed >1 year before screening is allowed); History of major depressive disorder within 2 years before randomisation; Any lifetime history of a suicidal attempt; and Female who is pregnant, breast-feeding or intends to become pregnant or is of childbearing potential and not using an adequate contraceptive method (adequate contraceptive measures as required by local regulation or practice).
# [2] = 26-week clinical trial in adult patients with T2D: gastrointestinal adverse events incl. nausea; format: in vivo, human; details: on-treatment
# Experimental: A 26-week, randomized, double-blind clinical trial was carried out with adult patients with T2D, HbA1c 7.0-10.0% (53-86 mmol/mol), and body mass index 24.0-40.0 kg/m^2 who were treated with diet and exercise±metformin. […] The primary endpoint was change in HbA1c from baseline to week 26. Key exclusion criteria were a history of chronic or idiopathic acute pancreatitis and moderate-to-severe renal impairment (estimated glomerular filtration rate <60 mL/min/1.73 m^2).
# Trial drug administration: Following a 2-week screening period, patients received trial medication for 26 weeks, followed by a 7-week follow-up period. […] The trial was double blinded within (but not between) each dose level of semaglutide, liraglutide and placebo, as treatment was volume matched.
# [3] = Lira 0.3 mg once daily s.c., N 64
# [4] = Lira 0.6 mg once daily s.c., N 64
# [5] = Lira 1.2 mg once daily s.c., N 64
# [6] = Lira 1.8 mg once daily s.c., N 65
smiles,measurement,setting,value
"CCCCCCCCCCCCCCCC(=O)N[C@@H](CCC(=O)NCCCC[C@H](NC(=O)[C@H](C)NC(=O)[C@H](C)NC(=O)[C@H](CCC(N)=O)NC(=O)CNC(=O)[C@H](CCC(=O)O)NC(=O)[C@H](CC(C)C)NC(=O)[C@H](Cc1ccc(O)cc1)NC(=O)[C@H](CO)NC(=O)[C@H](CO)NC(=O)[C@@H](NC(=O)[C@H](CC(=O)O)NC(=O)[C@H](CO)NC(=O)[C@@H](NC(=O)[C@H](Cc1ccccc1)NC(=O)[C@@H](NC(=O)CNC(=O)[C@H](CCC(=O)O)NC(=O)[C@H](C)NC(=O)[C@@H](N)Cc1cnc[nH]1)[C@@H](C)O)[C@@H](C)O)C(C)C)C(=O)N[C@@H](CCC(=O)O)C(=O)N[C@@H](Cc1ccccc1)C(=O)N[C@H](C(=O)N[C@@H](C)C(=O)N[C@@H](Cc1c[nH]c2ccccc12)C(=O)N[C@@H](CC(C)C)C(=O)N[C@H](C(=O)N[C@@H](CCCNC(=N)N)C(=O)NCC(=O)N[C@@H](CCCNC(=N)N)C(=O)NCC(=O)O)C(C)C)[C@@H](C)CC)C(=O)O [Lira, liraglutide, reference compound]","Gastrointestinal adverse events, Observed data, % (percentage of subjects with at least one event)",[1],74.8%
same,"Nausea, % (percentage of subjects experiencing at least one event)",[1]; observed data,44.7%
same,"Nausea, E (number of events)",[1]; observed data,89
same,"Nausea, Ne (number of subjects experiencing at least one event)","[1]; observed data, N 103",46
same,"Gastrointestinal adverse events, Observed data, Ne (number of subjects experiencing at least one event)",[1]; N 103,77
same,"Gastrointestinal adverse events, % (percentage of patients experiencing at least one event)",[2]; Lira 0.3 mg once daily s.c.,21.9%
same,"Gastrointestinal adverse events, E (number of events)",[2]; Lira 0.3 mg once daily s.c.,25
same,"Nausea, % (percentage of patients experiencing at least one event)",[2]; Lira 0.3 mg once daily s.c.,9.4%
same,"Nausea, E (number of events)",[2]; Lira 0.3 mg once daily s.c.,7
same,"Gastrointestinal adverse events, Ne (number of patients experiencing at least one event)",[2]; [3],14
same,"Nausea, Ne (number of patients experiencing at least one event)",[2]; [3],6
same,"Gastrointestinal adverse events, % (percentage of patients experiencing at least one event)",[2]; Lira 0.6 mg once daily s.c.,29.7%
same,"Gastrointestinal adverse events, E (number of events)",[2]; Lira 0.6 mg once daily s.c.,62
same,"Nausea, % (percentage of patients experiencing at least one event)",[2]; Lira 0.6 mg once daily s.c.,10.9%
same,"Nausea, E (number of events)",[2]; Lira 0.6 mg once daily s.c.,11
same,"Gastrointestinal adverse events, Ne (number of patients experiencing at least one event)",[2]; [4],19
same,"Nausea, Ne (number of patients experiencing at least one event)",[2]; [4],7
same,"Gastrointestinal adverse events, % (percentage of patients experiencing at least one event)",[2]; Lira 1.2 mg once daily s.c.,31.3%
same,"Gastrointestinal adverse events, E (number of events)",[2]; Lira 1.2 mg once daily s.c.,40
same,"Nausea, % (percentage of patients experiencing at least one event)",[2]; Lira 1.2 mg once daily s.c.,10.9%
same,"Nausea, E (number of events)",[2]; Lira 1.2 mg once daily s.c.,11
same,"Gastrointestinal adverse events, Ne (number of patients experiencing at least one event)",[2]; [5],20
same,"Nausea, Ne (number of patients experiencing at least one event)",[2]; [5],7
same,"Gastrointestinal adverse events, % (percentage of patients experiencing at least one event)",[2]; Lira 1.8 mg once daily s.c.,41.5%
same,"Gastrointestinal adverse events, E (number of events)",[2]; Lira 1.8 mg once daily s.c.,81
same,"Nausea, % (percentage of patients experiencing at least one event)",[2]; Lira 1.8 mg once daily s.c.,20.0%
same,"Nausea, E (number of events)",[2]; Lira 1.8 mg once daily s.c.,18
same,"Gastrointestinal adverse events, Ne (number of patients experiencing at least one event)",[2]; [6],27
same,"Nausea, Ne (number of patients experiencing at least one event)",[2]; [6],13
